Among the data in patent publication US8143263B2, “Therapeutic agents” (Astrazeneca AB, priority 2008, dated 2012) are EC50 values, retold here.

Each structure is given as a SMILES string.

In this assay the target is T1, recombinant human pancreatic GLK (Homo sapiens, UniProt P35557).
T1 sequence (P35557 1-465): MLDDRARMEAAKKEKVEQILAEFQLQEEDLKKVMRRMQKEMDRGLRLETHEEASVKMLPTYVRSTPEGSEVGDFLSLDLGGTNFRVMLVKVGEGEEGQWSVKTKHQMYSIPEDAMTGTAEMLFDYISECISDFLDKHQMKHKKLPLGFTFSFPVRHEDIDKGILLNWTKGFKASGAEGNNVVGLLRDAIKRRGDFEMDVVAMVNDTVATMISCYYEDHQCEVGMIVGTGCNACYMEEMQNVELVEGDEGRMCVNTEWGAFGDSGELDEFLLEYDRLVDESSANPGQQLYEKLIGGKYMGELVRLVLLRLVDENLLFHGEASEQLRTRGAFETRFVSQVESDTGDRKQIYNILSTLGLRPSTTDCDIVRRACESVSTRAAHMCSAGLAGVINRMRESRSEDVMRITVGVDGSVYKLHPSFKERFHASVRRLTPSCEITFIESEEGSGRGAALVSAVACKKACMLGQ
Put plainly: biochemical.
By EC50 is commonly meant the concentration at which the effect is half-maximal. `COC[C@H](Oc1ncnc2c1cnn2-c1ccccc1)C(=O)Nc1ccc(C)cn1` [Example 107, (S)-3-Methoxy-N-(5-methylpyridin-2-yl)-2-(1-phenyl-1H-pyrazolo[3,4-d]pyrimidin-4-yloxy)propanamide]: the EC50 came out at 3600 nM.

Regarding `CC(C)OCC(Oc1ncnc2c1cnn2-c1ccccc1Cl)C(=O)Nc1cnccn1` (stereo not shown) [Example 108, 2-[1-(2-Chlorophenyl)pyrazolo[4,5-e]pyrimidin-4-yl]oxy-3-isopropoxy-N-pyrazin-2-yl-propanamide], the EC50 turned out to be 1300 nM.

`Cc1nnc(NC(=O)C(COC(C)C)Oc2ncnc3c2cnn3-c2ccccc2Cl)s1` (stereo not shown) [Example 109, 2-[1-(2-chlorophenyl)pyrazolo[4,5-e]pyrimidin-4-yl]oxy-3-isopropoxy-N-(5-methyl-1,3,4-thiadiazol-2-yl)propanamide]: the EC50 came out at 3200 nM.

In the case of `Cc1cc(NC(=O)C(COC(C)C)Oc2ncnc3c2cnn3-c2ccccc2Cl)no1` (stereo not shown) [Example 110, 2-[1-(2-chlorophenyl)pyrazolo[4,5-e]pyrimidin-4-yl]oxy-3-isopropoxy-N-(5-methylisoxazol-3-yl)propanamide], the EC50 was 1000 nM.

Regarding `Cc1cnc(NC(=O)C(COC(C)C)Oc2ncnc3c2cnn3-c2ccccc2Cl)s1` (stereo not shown) [Example 111, 2-[1-(2-chlorophenyl)pyrazolo[4,5-e]pyrimidin-4-yl]oxy-3-isopropoxy-N-(5-methylthiazol-2-yl)propanamide], the EC50 is 330 nM.

As to `Cc1cnc(NC(=O)[C@H](COC(C)C)Oc2ncnc3c2cnn3-c2ccccc2Cl)s1` [Example 111a, (2S)-2-[1-(2-chlorophenyl)pyrazolo[4,5-e]pyrimidin-4-yl]oxy-3-isopropoxy-N-(5-methylthiazol-2-yl)propanamide], the EC50 worked out at 210 nM.

As for `CC(C)OCC(Oc1ncnc2c1cnn2-c1ccccc1Cl)C(=O)Nc1ccc(F)cn1` (stereo not shown) [Example 112, 2-[1-(2-chlorophenyl)pyrazolo[4,5-e]pyrimidin-4-yl]oxy-N-(5-fluoro-2-pyridyl)-3-isopropoxy-propanamide], the EC50 came out at 260 nM.

`CC(C)OC[C@H](Oc1ncnc2c1cnn2-c1ccccc1Cl)C(=O)Nc1ccc(F)cn1` [Example 112a, (2S)-2-[1-(2-chlorophenyl)pyrazolo[4,5-e]pyrimidin-4-yl]oxy-N-(5-fluoro-2-pyridyl)-3-isopropoxy-propanamide]: the EC50 is 220 nM.

For `CC(C)OCC(Oc1ncnc2c1cnn2-c1ccccc1Cl)C(=O)Nc1ccc(C#N)cn1` (stereo not shown) [Example 113, 2-[1-(2-chlorophenyl)pyrazolo[4,5-e]pyrimidin-4-yl]oxy-N-(5-cyano-2-pyridyl)-3-isopropoxy-propanamide], the EC50 came to 300 nM.

In the case of `CC(C)OC[C@H](Oc1ncnc2c1cnn2-c1ccccc1Cl)C(=O)Nc1ccc(C#N)cn1` [Example 113a, (2S)-2-[1-(2-chlorophenyl)pyrazolo[4,5-e]pyrimidin-4-yl]oxy-N-(5-cyano-2-pyridyl)-3-isopropoxy-propanamide], the EC50 amounted to 300 nM.

As to `CC(C)OCC(Oc1ncnc2c1cnn2-c1ccccc1Cl)C(=O)Nc1ncns1` (stereo not shown) [Example 114, 2-[1-(2-chlorophenyl)pyrazolo[4,5-e]pyrimidin-4-yl]oxy-3-isopropoxy-N-(1,2,4-thiadiazol-5-yl)propanamide], the EC50 amounted to 2100 nM.

For `CC(C)OCC(Oc1ncnc2c1cnn2-c1ccccc1Cl)C(=O)Nc1ccc(Cl)cn1` (stereo not shown) [Example 115, 2-[1-(2-chlorophenyl)pyrazolo[4,5-e]pyrimidin-4-yl]oxy-N-(5-chloro-2-pyridyl)-3-isopropoxy-propanamide], the EC50 stood at 110 nM.

As to `CC(C)OC[C@H](Oc1ncnc2c1cnn2-c1ccccc1Cl)C(=O)Nc1ccc(Cl)cn1` [Example 115a, (2S)-2-[1-(2-chlorophenyl)pyrazolo[4,5-e]pyrimidin-4-yl]oxy-N-(5-chloro-2-pyridyl)-3-isopropoxy-propanamide], the EC50 amounted to 98 nM.

Regarding `Cc1ccnc(NC(=O)C(COC(C)C)Oc2ncnc3c2cnn3-c2ccccc2Cl)c1` (stereo not shown) [Example 116, 2-[1-(2-chlorophenyl)pyrazolo[4,5-e]pyrimidin-4-yl]oxy-3-isopropoxy-N-(4-methyl-2-pyridyl)propanamide], the EC50 is 2300 nM.

For `CC(C)OCC(Oc1ncnc2c1cnn2-c1ccccc1Cl)C(=O)Nc1nncs1` (stereo not shown) [Example 117, 2-[1-(2-chlorophenyl)pyrazolo[4,5-e]pyrimidin-4-yl]oxy-3-isopropoxy-N-(1,3,4-thiadiazol-2-yl)propanamide], the EC50 came out at 6800 nM.

Consider `CC(C)OCC(Oc1ncnc2c1cnn2-c1ccccc1Cl)C(=O)Nc1ccccn1` (stereo not shown) [Example 118, 2-[1-(2-chlorophenyl)pyrazolo[4,5-e]pyrimidin-4-yl]oxy-3-isopropoxy-N-(2-pyridyl)propanamide], for which the EC50 was determined as 150 nM.

For the molecule `CC(C)OC[C@H](Oc1ncnc2c1cnn2-c1ccccc1Cl)C(=O)Nc1ccccn1` [Example 118a, (2S)-2-[1-(2-chlorophenyl)pyrazolo[4,5-e]pyrimidin-4-yl]oxy-3-isopropoxy-N-(2-pyridyl)propanamide], the EC50 turned out to be 120 nM.

With `CC(C)OCC(Oc1ncnc2c1cnn2-c1ccccc1Cl)C(=O)Nc1ccon1` (stereo not shown) [Example 119, 2-[1-(2-chlorophenyl)pyrazolo[4,5-e]pyrimidin-4-yl]oxy-3-isopropoxy-N-isoxazol-3-yl-propanamide], the EC50 was determined as 1200 nM.

Consider `CC(C)OCC(Oc1ncnc2c1cnn2-c1ccccc1Cl)C(=O)Nc1ccncn1` (stereo not shown) [Example 120, 2-[1-(2-chlorophenyl)pyrazolo[4,5-e]pyrimidin-4-yl]oxy-3-isopropoxy-N-pyrimidin-4-yl-propanamide], for which the EC50 amounted to 540 nM.

Turning to `Cc1ccc(NC(=O)[C@H](COC(C)C)Oc2ncnc3c2cnn3-c2ncccc2C)nc1` [Example 125, (2S)-3-Isopropoxy-N-(5-methylpyridin-2-yl)-2-(1-(3-methylpyridin-2-yl)-1H-pyrazolo[3,4-d]pyrimidin-4-yloxy)propanamide], the EC50 stood at 310 nM.

With `Cc1ccc(NC(=O)[C@H](COC(C)C)Oc2ncnc3c2cnn3-c2ncccc2C(F)(F)F)nc1` [Example 126, (2S)-3-Isopropoxy-N-(5-methylpyridin-2-yl)-2-(1-(3-(trifluoromethyl)pyridin-2-yl)-1H-pyrazolo[3,4-d]pyrimidin-4-yloxy)propanamide], the EC50 amounted to 570 nM.

As to `Cc1ccc(NC(=O)[C@H](COC(C)C)Oc2ncnc3c2cnn3-c2ncccc2Cl)nn1` [Example 127, (2S)-2-[1-(3-chloro-2-pyridyl)pyrazolo[4,5-e]pyrimidin-4-yl]oxy-3-isopropoxy-N-(6-methylpyridazin-3-yl)propanamide], the EC50 amounted to 6000 nM.

For the molecule `Cc1cccnc1-n1ncc2c(O[C@@H](COC(C)C)C(=O)Nc3ccc(C#N)cn3)ncnc21` [Example 127a, (2S)—N-(5-cyanopyridin-2-yl)-3-isopropoxy-2-(1-(3-methylpyridin-2-yl)-1H-pyrazolo[3,4-d]pyrimidin-4-yloxy)propanamide], the EC50 is 1100 nM.

On to `Cc1cccnc1-n1ncc2c(O[C@@H](COC(C)C)C(=O)Nc3ccc(Cl)cn3)ncnc21` [Example 127b, (2S)—N-(5-chloropyridin-2-yl)-3-isopropoxy-2-(1-(3-methylpyridin-2-yl)-1H-pyrazolo[3,4-d]pyrimidin-4-yloxy)propanamide], for which the EC50 stood at 840 nM.

On to `CCOC[C@H](Oc1ncnc2c1cnn2-c1ncccc1Cl)C(=O)Nc1ccc(C#N)cn1` [Example 127c, (2S)-2-[1-(3-chloro-2-pyridyl)pyrazolo[4,5-e]pyrimidin-4-yl]oxy-N-(5-cyano-2-pyridyl)-3-ethoxy-propanamide], for which the EC50 came out at 670 nM.

Regarding `CCOC[C@H](Oc1ncnc2c1cnn2-c1ncccc1Cl)C(=O)Nc1ccc(F)cn1` [Example 127d, (2S)-2-[1-(3-chloro-2-pyridyl)pyrazolo[4,5-e]pyrimidin-4-yl]oxy-3-ethoxy-N-(5-fluoro-2-pyridyl)propanamide], the EC50 was determined as 670 nM.

Regarding `CCOC[C@H](Oc1ncnc2c1cnn2-c1ncccc1Cl)C(=O)Nc1ccccn1` [Example 127e, (2S)-2-[1-(3-chloro-2-pyridyl)pyrazolo[4,5-e]pyrimidin-4-yl]oxy-3-ethoxy-N-(2-pyridyl)propanamide], the EC50 is 550 nM.

Take `CCOC[C@H](Oc1ncnc2c1cnn2-c1ncccc1Cl)C(=O)Nc1ccncn1` [Example 127f, (2S)-2-[1-(3-chloro-2-pyridyl)pyrazolo[4,5-e]pyrimidin-4-yl]oxy-3-ethoxy-N-pyrimidin-4-yl-propanamide]: the EC50 came out at 1100 nM.

`CCOC[C@H](Oc1ncnc2c1cnn2-c1ncccc1Cl)C(=O)Nc1ccc(Cl)cn1` [Example 127g, (2S)—N-(5-chloro-2-pyridyl)-2-[1-(3-chloro-2-pyridyl)pyrazolo[4,5-e]pyrimidin-4-yl]oxy-3-ethoxy-propanamide]: the EC50 came to 300 nM.

As to `CC(C)OC[C@H](Oc1ncnc2c1cnn2-c1ncccc1Cl)C(=O)Nc1nc(C#N)cs1` [Example 127h, (2S)-2-[1-(3-chloro-2-pyridyl)pyrazolo[4,5-e]pyrimidin-4-yl]oxy-N-(4-cyanothiazol-2-yl)-3-isopropoxy-propanamide], the EC50 is 6400 nM.

Regarding `CC(C)OC[C@H](Oc1ncnc2c1cnn2-c1ncccc1Cl)C(=O)Nc1ccc(Cl)cn1` [Example 127i, (2S)—N-(5-chloro-2-pyridyl)-2-[1-(3-chloro-2-pyridyl)pyrazolo[4,5-e]pyrimidin-4-yl]oxy-3-isopropoxy-propanamide], the EC50 stood at 360 nM.
